Laboratory results reported in patent publication US7825256B2, “Inducible nitric oxide synthase dimerization inhibitors” (Kalypsys, Inc., priority 2004, dated 2010).

biological target: T1, hiNOS (Homo sapiens, UniProt P35228); assay: DAN assay, hiNOS expressed in transiently transfected HEK293 cells; assay type: cell-based; details: HEK293 cells transiently transfected with hiNOS
T1 construct: expressed in transfected cells; host or cells: HEK293
Description: The source of nitric oxide synthase (NOS) enzyme can be generated in several ways including induction of endogenous iNOS using cytokines and/or lipopolysaccharide (LPS) in various cell types known in the art. Alternatively, the gene encoding the enzyme can be cloned and the enzyme can be generated in cells via heterologous expression from a transient or stable expression plasmid with suitable features for protein expression as are known in the art. Enzymatic activity (nitric oxide production) is calcium independent for iNOS, while the constitutive NOS isoforms, nNOS and eNOS, become active with the addition of various cofactors added to cellular media or extract as are well known in the art. Enzymes specified in Table 1 were expressed in HEK293 cells transiently transfected with the indicated NOS isoform.
A major metabolic pathway for nitric oxide is to nitrate and nitrite, which are stable metabolites within tissue culture, tissue, plasma, and urine (S Moncada, A Higgs, N Eng J Med 329, 2002 (1993)).
The level of nitrate or nitrite in the specimen can be quantified by any method known in the art which provides adequate sensitivity and reproducibility. A variety of protocols have also been described for detecting and quantifying nitrite and nitrate levels in biological fluids by ion chromatography (e.g., S A Everett et al., J. Chromatogr. 706, 437 (1995); J M Monaghan et al., J. Chromatogr. 770, 143 (1997)), high-performance liquid chromatography (e.g., M Kelm et al., Cardiovasc. Res. 41, 765 (1999)), and capillary electrophoresis (M A Friedberg et al., J. Chromatogr. 781, 491 (1997)). For example, 2,3-diaminonaphthalene reacts with the nitrosonium cation that forms spontaneously from NO to form the fluorescent product […]. Using 2,3-diaminonaphthalene (“DAN”), researchers have developed a rapid, quantitative fluorometric assay that can detect from 10 nM to 10 μM nitrite and is compatible with a multi-well microplate format. […] DAN reacts with nitrite ion and gives fluorescent […] (M C Carré et al., Analysis 27, 835-838 (1999)). Table 1 provides the test results of various compounds of the subject invention using the DAN assay.
A specimen can be processed prior to determination of nitrate or nitrite as required by the quantification method, or in order to improve the results, or for the convenience of the investigator. For example, processing can involve centrifuging, filtering, or homogenizing the sample. If the sample is whole blood, the blood can be centrifuged to remove cells and the nitrate or nitrite assay performed on the plasma or serum fraction. If the sample is tissue, the tissue can be dispersed or homogenized by any method known in the art prior to determination of nitrate or nitrite. It may be preferable to remove cells and other debris by centrifugation or another method and to determine the nitrate or nitrite level using only the fluid portion of the sample, or the extracellular fluid fraction of the sample. The sample can also be preserved for later determination, for example by freezing of urine or plasma samples. When appropriate, additives may be introduced into the specimen to preserve or improve its characteristics for use in the nitrate or nitrite assay.
The “level” of nitrate, nitrite, or other NO-related product usually refers to the concentration (in moles per liter, micromoles per liter, or other suitable units) of nitrate or nitrite in the specimen, or in the fluid portion of the specimen. However, other units of measure can also be used to express the level of nitrate or nitrite. For example, an absolute amount (in micrograms, milligrams, nanomoles, moles, or other suitable units) can be used, particularly if the amount refers back to a constant amount (e.g., grams, kilograms, milliliters, liters, or other suitable units) of the specimens under consideration. A number of commercially available kits can be used.

EC50 [nM]	SMILES
< 1000	Cn1cnc(CN(CCCNCc2ccc3c(c2)OCO3)c2nc(-n3ccnc3)ns2)c1 [Example 106, N′-Benzo[1,3]dioxol-5-ylmethyl-N-(3-imidazol-1-yl-[1,2,4]thiadiazol-5-yl)-N-(1-methyl-1H-imidazol-4-ylmethyl)-propane-1,3-diamine]
< 1000	Cc1cc(CNC(=O)CNCc2ccc3c(c2)OCO3)nc(-n2ccnc2)n1 [Example 14]
> 50000	COc1ccc(CN2CCCC2C(=O)NCc2cc(C)nc(-n3ccnc3)n2)cc1O (centres unmarked) [Example 114, 1-(3-Hydroxy-4-methoxy-benzyl)-pyrrolidine-2-carboxylic acid (2-imidazol-1-yl-6-methyl-pyrimidin-4-ylmethyl)-amide]
< 1000	c1cn(-c2nsc(N(CCCNCc3ccc4c(c3)OCO4)Cc3nnn[nH]3)n2)cn1 [Example 61, N′-Benzo[1,3]dioxol-5-ylmethyl-N-(3-imidazol-1-yl-[1,2,4]thiadiazol-5-yl)-N-(1H-tetrazol-5-ylmethyl)-propane-1,3-diamine]
< 1000	Cc1cc(C2CCCN2CC(=O)NCc2ccc3c(c2)OCO3)nc(-n2ccnc2)n1 (centres unmarked) [Example 37, N-Benzo[1,3]dioxol-5-ylmethyl-2-[2-(2-imidazol-1-yl-6-methyl-pyrimidin-4-yl)-pyrrolidin-1-yl]-acetamide]
< 50000	Cc1cc(C(C)(C)C(=O)NCCCc2ccc3c(c2)OCO3)nc(-n2ccnc2)n1 [Example 72, 2-(2-(1H-imidazol-1-yl)-6-methylpyrimidin-4-yl)-N-(3-(benzo[d][1,3]dioxol-5-yl)propyl)-2-methylpropanamide]
< 1000	CCOC(=O)C(NC(=O)CNCc1ccc2c(c1)OCO2)c1cc(C)nc(-n2ccnc2)n1 (centres unmarked) [Example 41, {2-[(Benzo[1,3]dioxol-5-ylmethyl)-amino]-acetylamino}-(2-imidazol-1-yl-6-methyl-pyrimidin-4-yl)-acetic acid ethyl ester]
< 50000	Cc1cc(CNS(=O)(=O)NCCc2ccc3c(c2)OCO3)nc(-n2ccnc2)n1 [Example 71]
> 50000	Cc1cc(CNC(=O)C2CCCN2Cc2ccc(C(F)(F)F)cc2)nc(-n2ccnc2)n1 (centres unmarked) [Example 107, 1-(4-Trifluoromethyl-benzyl)-pyrrolidine-2-carboxylic acid (2-imidazol-1-yl-6-methyl-pyrimidin-4-ylmethyl)-amide]
< 1000	CN(CCNCc1ccc2c(c1)OCO2)c1nc(-n2ccnc2)ns1 [Example 47, N′-Benzo[1,3]dioxol-5-ylmethyl-N-(3-imidazol-1-yl-[1,2,4]thiadiazol-5-yl)-N-methyl-ethane-1,2-diamine]
< 1000	CC(NCCNCc1ccc2c(c1)OCO2)c1csc(-n2ccnc2)n1 (centres unmarked) [Example 68, N-Benzo[1,3]dioxol-5-ylmethyl-N′-[1-(2-imidazol-1-yl-thiazol-4-yl)-ethyl]-ethane-1,2-diamine]
< 1000	CNNC(=N)CN(CCCNCc1ccc2c(c1)OCO2)c1nc(-n2ccnc2)ns1 [Example 62, 2-[{3-[(Benzo[1,3]dioxol-5-ylmethyl)-amino]-propyl}-(3-imidazol-1-yl-[1,2,4]thiadiazol-5-yl)-amino]-acetamidine N′-methyl-hydrazide]
< 1000	NC(=O)C1CCC(C(=O)NCCc2ccc3c(c2)OCO3)N1c1nc(-n2ccnc2)ns1 (centres unmarked) [Example 95]
> 50000	CN(CCCNCc1ccc2[nH]ccc2c1)c1nc(-n2ccnc2)ns1 [Example 18, N-(3-Imidazol-1-yl-[1,2,4]thiadiazol-5-yl)-N′-(1H-indol-5-ylmethyl)-N-methyl-propane-1,3-diamine]
> 50000	Cc1cc(CNC(=O)C2CCCN2Cc2ccc(F)c(F)c2)nc(-n2ccnc2)n1 (centres unmarked) [Example 112, 1-(3,4-Difluoro-benzyl)-pyrrolidine-2-carboxylic acid (2-imidazol-1-yl-6-methyl-pyrimidin-4-ylmethyl)-amide]
< 1000	CN(CCc1ccc2c(c1)OCO2)CCN(C)c1nc(-n2ccnc2)ns1 [Example 128, N-(2-Benzo[1,3]dioxol-5-yl-ethyl)-N′-(3-imidazol-1-yl-[1,2,4]thiadiazol-5-yl)-N,N′-dimethyl-ethane-1,2-diamine]
< 1000	Cc1cc(C(C)NCCOCc2ccc3c(c2)OCO3)nc(-n2ccnc2)n1 (centres unmarked) [Example 43, [2-(Benzo[1,3]dioxol-5-ylmethoxy)-ethyl]-[1-(2-imidazol-1-yl-6-methyl-pyrimidin-4-yl)-ethyl]-amine]
< 1000	CN(CCCCNCc1ccc2c(c1)OCO2)c1nc(-n2ccnc2)ns1 [Example 48, N′-Benzo[1,3]dioxol-5-ylmethyl-N-(3-imidazol-1-yl-[1,2,4]thiadiazol-5-yl)-N-methyl-butane-1,4-diamine]
< 1000	CN(CCNCCc1ccc2c(c1)OCO2)c1nc(-n2ccnc2)ns1 [Example 127, N′-(2-Benzo[1,3]dioxol-5-yl-ethyl)-N-(3-imidazol-1-yl-[1,2,4]thiadiazol-5-yl)-N-methyl-ethane-1,2-diamine]
< 1000	CN(CC1CCN(Cc2ccc3c(c2)OCO3)C1)c1nc(-n2ccnc2)ns1 (centres unmarked) [Example 46, (1-Benzo[1,3]dioxol-5-ylmethyl-pyrrolidin-3-ylmethyl)-(3-imidazol-1-yl-[1,2,4]thiadiazol-5-yl)-methyl-amine]
> 50000	CN(CCCNCc1c(Cl)cccc1Cl)c1nc(-n2ccnc2)ns1 [Example 10, N′-(2,6-Dichloro-benzyl)-N-(3-imidazol-1-yl-[1,2,4]thiadiazol-5-yl)-N-methyl-propane-1,3-diamine]
> 50000	CN(CCCNCc1ccc2c(c1)OCO2)c1nc(-n2cnc(I)c2)ns1 [Example 81, N′-Benzo[1,3]dioxol-5-ylmethyl-N-[3-(4-iodo-imidazol-1-yl)-[1,2,4]thiadiazol-5-yl]-N-methyl-propane-1,3-diamine]
< 1000	Cc1cc(C(C)N2CCC[C@@H]2C(=O)NCc2ccc3c(c2)OCO3)nc(-n2ccnc2)n1 (mixture of isomers) [Example 121, 1-[1-(2-Imidazol-1-yl-6-methyl-pyrimidin-4-yl)-ethyl]-pyrrolidine-2-carboxylic acid (benzo[1,3]dioxol-5-ylmethyl)-amide]
< 1000	CNC(=O)C1CCN(CCNCc2ccc3c(c2)OCO3)C1c1cc(C)nc(-n2ccnc2)n1 (centres unmarked) [Example 137, 2-(2-(1H-Imidazol-1-yl)-6-methylpyrimidin-4-yl)-1-(2-(benzo[d][1,3]dioxol-5-ylmethylamino)ethyl)-N-methylpyrrolidine-3-carboxamide]
< 1000	COc1ccc(CNCCNC(C)c2cc(C)nc(-n3ccnc3)n2)cc1F (centres unmarked) [Example 98, N-(3-Fluoro-4-methoxy-benzyl)-N′-[1-(2-imidazol-1-yl-6-methyl-pyrimidin-4-yl)-ethyl]-ethane-1,2-diamine]
> 50000	CN(CCCNS(=O)(=O)c1ccc(OC(F)(F)F)cc1)c1nc(-n2ccnc2)ns1 [Example 34, N-{3-[(3-Imidazol-1-yl-[1,2,4]thiadiazol-5-yl)-methyl-amino]-propyl}-4-trifluoromethoxy-benzenesulfonamide]
< 50000	COc1ccc(CNCCNC(C)c2cc(C)nc(-n3ccnc3)n2)cc1O (centres unmarked) [Example 100, 5-({2-[1-(2-Imidazol-1-yl-6-methyl-pyrimidin-4-yl)-ethylamino]-ethylamino}-methyl)-2-methoxy-phenol]
< 1000	CN(C)C(=O)CN(CCCNCc1ccc2c(c1)OCO2)c1nc(-n2ccnc2)ns1 [Example 57, 2-[{3-[(Benzo[1,3]dioxol-5-ylmethyl)-amino]-propyl}-(3-imidazol-1-yl-[1,2,4]thiadiazol-5-yl)-amino]-N,N-dimethyl-acetamide]

SMILES	EC50 [nM]
c1cn(-c2nsc(N3CCN(Cc4ccc5c(c4)OCO5)CC3)n2)cn1 [Example 33, 1-Benzo[1,3]dioxol-5-ylmethyl-4-(3-imidazol-1-yl-[1,2,4]thiadiazo-5-yl)-piperazine]	< 50000
